Publication PMC7311426, “An amphipathic peptide with antibiotic activity against multidrug-resistant Gram-negative bacteria” (Nature Communications, 2020)
Values after ≈ are worked out from the molar mass of the structure shown.

Experiments:
Assay in all cases: microbe, parasite or virus in culture
[1] = tested on: E. coli
Method in brief: (§1)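 MICs were scored by eye after 18-20 h static incubation at 37 °C, with bacteria at 5 × 10^5 CFU mL^−1 in MHB. Peptides were serially diluted 2-fold over 12 points, top 128 or 64 μg mL^−1. CAMHB (CLSI) and 1% agarose-MHB variants were also run, at least six replicates.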

[2] = tested on: K. pneumoniae
Method in brief: as §1

[3] = tested on: P. aeruginosa
Method in brief: as §1

C[C@H]1[C@H](NC(=O)/C(=N\OC(C)(C)C(=O)O)c2csc(N)n2)C(=O)N1S(=O)(=O)O [AZT]
MIC, broth microdilution ([1]; E. coli AUD172 parent strain not exposed to drug): >32 µg/mL | MIC, broth microdilution ([1]; E. coli AUD172 spontaneous mutant, AA139 selection 4X, plate 2, colony 2, drug-free passage 1): >32 , >32 µg/mL | MIC, broth microdilution ([1]; E. coli AUD172 spontaneous mutant, AA139 selection 4X, plate 2, colony 2, drug-free passage 5): >32 , >32 µg/mL | MIC, broth microdilution ([2]; K. pneumoniae 3010 parent strain not exposed to drug): 0.06 µg/mL (≈ 0.138 µM) | MIC, broth microdilution ([2]; K. pneumoniae ST258 parent strain not exposed to drug): >32 µg/mL | MIC, broth microdilution ([2]; K. pneumoniae ST258 spontaneous mutant, AA139 selection 4X, plate 1, colony 1, drug-free passage 1): >32 , >32 µg/mL | MIC, broth microdilution ([2]; K. pneumoniae ST258 spontaneous mutant, AA139 selection 4X, plate 1, colony 1, drug-free passage 5): >32 , >32 µg/mL | MIC, broth microdilution ([3]; P. aeruginosa ATCC 27853 parent strain not exposed to drug): 4 µg/mL (≈ 9.19 µM) | MIC, broth microdilution ([3]; P. aeruginosa ATCC 27853 spontaneous mutant, AA139 selection 4X, plate 1, colony 1, drug-free passage 1): 4, 4 µg/mL | MIC, broth microdilution ([3]; P. aeruginosa ATCC 27853 spontaneous mutant, AA139 selection 4X, plate 1, colony 1, drug-free passage 5): 4, 4 µg/mL | MIC, broth microdilution ([3]; P. aeruginosa ATCC 27853 spontaneous mutant, AA139 selection 4X, plate 1, colony 2, drug-free passage 1): 8 µg/mL (≈ 18.4 µM) | MIC, broth microdilution ([3]; P. aeruginosa ATCC 27853 spontaneous mutant, AA139 selection 4X, plate 1, colony 2, drug-free passage 5): 4 µg/mL (≈ 9.19 µM) | MIC, broth microdilution ([3]; P. aeruginosa ATCC 27853 spontaneous mutant, AA139 selection 4X, plate 1, colony 3, drug-free passage 1): 4 µg/mL (≈ 9.19 µM) | MIC, broth microdilution ([3]; P. aeruginosa ATCC 27853 spontaneous mutant, AA139 selection 4X, plate 1, colony 3, drug-free passage 5): 8 µg/mL (≈ 18.4 µM) | MIC, broth microdilution ([3]; P. aeruginosa ATCC 27853 spontaneous mutant, AA139 selection 4X, plate 1, colony 4, drug-free passage 1): 8 µg/mL (≈ 18.4 µM) | MIC, broth microdilution ([3]; P. aeruginosa ATCC 27853 spontaneous mutant, AA139 selection 4X, plate 1, colony 4, drug-free passage 5): 4 µg/mL (≈ 9.19 µM) | MIC, broth microdilution ([3]; P. aeruginosa ATCC 27853 spontaneous mutant, AA139 selection 4X, plate 1, colony 5, drug-free passage 1): 8 µg/mL (≈ 18.4 µM) | MIC, broth microdilution ([3]; P. aeruginosa ATCC 27853 spontaneous mutant, AA139 selection 4X, plate 1, colony 5, drug-free passage 5): 4 µg/mL (≈ 9.19 µM) | MIC, broth microdilution ([3]; P. aeruginosa ATCC 27853 spontaneous mutant, AA139 selection 4X, plate 1, colony 6, drug-free passage 1): 8 µg/mL (≈ 18.4 µM) | MIC, broth microdilution ([3]; P. aeruginosa ATCC 27853 spontaneous mutant, AA139 selection 4X, plate 1, colony 6, drug-free passage 5): 4 µg/mL (≈ 9.19 µM) | MIC, broth microdilution ([3]; P. aeruginosa ATCC 27853 spontaneous mutant, AA139 selection 4X, plate 2, colony 1, drug-free passage 1): 4, 4 µg/mL | MIC, broth microdilution ([3]; P. aeruginosa ATCC 27853 spontaneous mutant, AA139 selection 4X, plate 2, colony 1, drug-free passage 5): 4, 4 µg/mL | MIC, broth microdilution ([3]; P. aeruginosa ATCC 27853 spontaneous mutant, AA139 selection 4X, plate 2, colony 2, drug-free passage 1): 4, 4 µg/mL | MIC, broth microdilution ([3]; P. aeruginosa ATCC 27853 spontaneous mutant, AA139 selection 4X, plate 2, colony 2, drug-free passage 5): 4, 4 µg/mL | MIC, broth microdilution ([3]; P. aeruginosa ATCC 27853 spontaneous mutant, AA139 selection 4X, plate 2, colony 3, drug-free passage 1): 4, 4 µg/mL | MIC, broth microdilution ([3]; P. aeruginosa ATCC 27853 spontaneous mutant, AA139 selection 4X, plate 2, colony 3, drug-free passage 5): 4, 4 µg/mL | MIC, broth microdilution ([3]; P. aeruginosa ATCC 27853 spontaneous mutant, AA139 selection 4X, plate 2, colony 4, drug-free passage 1): 4, 4 µg/mL | MIC, broth microdilution ([3]; P. aeruginosa ATCC 27853 spontaneous mutant, AA139 selection 4X, plate 2, colony 4, drug-free passage 5): 4, 4 µg/mL | MIC, broth microdilution ([3]; P. aeruginosa ATCC 27853 spontaneous mutant, AA139 selection 8X, plate 1, colony 1, drug-free passage 1): 8 µg/mL (≈ 18.4 µM) | MIC, broth microdilution ([3]; P. aeruginosa ATCC 27853 spontaneous mutant, AA139 selection 8X, plate 1, colony 1, drug-free passage 5): 4 µg/mL (≈ 9.19 µM) | MIC, broth microdilution ([3]; P. aeruginosa ATCC 27853 spontaneous mutant, AA139 selection 8X, plate 1, colony 2, drug-free passage 1): 8, 8 µg/mL | MIC, broth microdilution ([3]; P. aeruginosa ATCC 27853 spontaneous mutant, AA139 selection 8X, plate 1, colony 2, drug-free passage 5): 8, 8 µg/mL | MIC, broth microdilution ([3]; P. aeruginosa ATCC 27853 spontaneous mutant, AA139 selection 8X, plate 1, colony 3, drug-free passage 1): 8, 8 µg/mL | MIC, broth microdilution ([3]; P. aeruginosa ATCC 27853 spontaneous mutant, AA139 selection 8X, plate 1, colony 3, drug-free passage 5): 8, 8 µg/mL | MIC, broth microdilution ([3]; P. aeruginosa ATCC 27853 spontaneous mutant, AA139 selection 8X, plate 1, colony 4, drug-free passage 1): 8, 8 µg/mL | MIC, broth microdilution ([3]; P. aeruginosa ATCC 27853 spontaneous mutant, AA139 selection 8X, plate 1, colony 4, drug-free passage 5): 8, 8 µg/mL | MIC, broth microdilution ([3]; P. aeruginosa ATCC 27853 spontaneous mutant, AA139 selection 8X, plate 1, colony 5, drug-free passage 1): 8, 8 µg/mL | MIC, broth microdilution ([3]; P. aeruginosa ATCC 27853 spontaneous mutant, AA139 selection 8X, plate 1, colony 5, drug-free passage 5): 8, 8 µg/mL | MIC, broth microdilution ([3]; P. aeruginosa UNT 138-1 parent strain not exposed to drug): 4 µg/mL (≈ 9.19 µM) | MIC, broth microdilution ([3]; P. aeruginosa UNT 138-1 spontaneous mutant, AA139 selection 4X, plate 1, colony 1, drug-free passage 1): 4 µg/mL (≈ 9.19 µM) | MIC, broth microdilution ([3]; P. aeruginosa UNT 138-1 spontaneous mutant, AA139 selection 4X, plate 1, colony 1, drug-free passage 5): 8 µg/mL (≈ 18.4 µM) | MIC, broth microdilution ([3]; P. aeruginosa UNT 138-1 spontaneous mutant, AA139 selection 4X, plate 1, colony 2, drug-free passage 1): 4, 4 µg/mL | MIC, broth microdilution ([3]; P. aeruginosa UNT 138-1 spontaneous mutant, AA139 selection 4X, plate 1, colony 2, drug-free passage 5): 4, 4 µg/mL | MIC, broth microdilution ([3]; P. aeruginosa UNT 138-1 spontaneous mutant, AA139 selection 4X, plate 1, colony 3, drug-free passage 1): 4 µg/mL (≈ 9.19 µM) | MIC, broth microdilution ([3]; P. aeruginosa UNT 138-1 spontaneous mutant, AA139 selection 4X, plate 1, colony 3, drug-free passage 5): 8 µg/mL (≈ 18.4 µM) | MIC, broth microdilution ([3]; P. aeruginosa UNT 138-1 spontaneous mutant, AA139 selection 4X, plate 1, colony 4, drug-free passage 1): 8, 8 µg/mL | MIC, broth microdilution ([3]; P. aeruginosa UNT 138-1 spontaneous mutant, AA139 selection 4X, plate 1, colony 4, drug-free passage 5): 8, 8 µg/mL | MIC, broth microdilution ([3]; P. aeruginosa UNT 138-1 spontaneous mutant, AA139 selection 4X, plate 1, colony 5, drug-free passage 1): 4, 4 µg/mL | MIC, broth microdilution ([3]; P. aeruginosa UNT 138-1 spontaneous mutant, AA139 selection 4X, plate 1, colony 5, drug-free passage 5): 4, 4 µg/mL | MIC, broth microdilution ([3]; P. aeruginosa UNT 138-1 spontaneous mutant, AA139 selection 4X, plate 1, colony 6, drug-free passage 1): 4, 4 µg/mL | MIC, broth microdilution ([3]; P. aeruginosa UNT 138-1 spontaneous mutant, AA139 selection 4X, plate 1, colony 6, drug-free passage 5): 4, 4 µg/mL | MIC, broth microdilution ([3]; P. aeruginosa UNT 138-1 spontaneous mutant, AA139 selection 4X, plate 1, colony 7, drug-free passage 1): 4, 4 µg/mL | MIC, broth microdilution ([3]; P. aeruginosa UNT 138-1 spontaneous mutant, AA139 selection 4X, plate 1, colony 7, drug-free passage 5): 4, 4 µg/mL | MIC, broth microdilution ([3]; P. aeruginosa UNT 138-1 spontaneous mutant, AA139 selection 4X, plate 2, colony 1, drug-free passage 1): 8, 8 µg/mL | MIC, broth microdilution ([3]; P. aeruginosa UNT 138-1 spontaneous mutant, AA139 selection 4X, plate 2, colony 1, drug-free passage 5): 8, 8 µg/mL | MIC, broth microdilution ([3]; P. aeruginosa UNT 138-1 spontaneous mutant, AA139 selection 4X, plate 2, colony 2, drug-free passage 1): 4, 4 µg/mL | MIC, broth microdilution ([3]; P. aeruginosa UNT 138-1 spontaneous mutant, AA139 selection 4X, plate 2, colony 2, drug-free passage 5): 4, 4 µg/mL | MIC, broth microdilution ([3]; P. aeruginosa UNT 138-1 spontaneous mutant, AA139 selection 4X, plate 2, colony 3, drug-free passage 1): 4, 4 µg/mL | MIC, broth microdilution ([3]; P. aeruginosa UNT 138-1 spontaneous mutant, AA139 selection 4X, plate 2, colony 3, drug-free passage 5): 4, 4 µg/mL | MIC, broth microdilution ([3]; P. aeruginosa UNT 138-1 spontaneous mutant, AA139 selection 4X, plate 2, colony 4, drug-free passage 1): 4, 4 µg/mL | MIC, broth microdilution ([3]; P. aeruginosa UNT 138-1 spontaneous mutant, AA139 selection 4X, plate 2, colony 4, drug-free passage 5): 4, 4 µg/mL | MIC, broth microdilution ([3]; P. aeruginosa UNT 138-1 spontaneous mutant, AA139 selection 4X, plate 2, colony 5, drug-free passage 1): 4, 4 µg/mL | MIC, broth microdilution ([3]; P. aeruginosa UNT 138-1 spontaneous mutant, AA139 selection 4X, plate 2, colony 5, drug-free passage 5): 4, 4 µg/mL | MIC, broth microdilution ([3]; P. aeruginosa UNT 138-1 spontaneous mutant, AA139 selection 4X, plate 2, colony 6, drug-free passage 1): 4, 4 µg/mL | MIC, broth microdilution ([3]; P. aeruginosa UNT 138-1 spontaneous mutant, AA139 selection 4X, plate 2, colony 6, drug-free passage 5): 4, 4 µg/mL | MIC, broth microdilution ([3]; P. aeruginosa UNT 138-1 spontaneous mutant, AA139 selection 4X, plate 2, colony 7, drug-free passage 1): 4, 4 µg/mL | MIC, broth microdilution ([3]; P. aeruginosa UNT 138-1 spontaneous mutant, AA139 selection 4X, plate 2, colony 7, drug-free passage 5): 4, 4 µg/mL | MIC, broth microdilution ([3]; P. aeruginosa UNT 138-1 spontaneous mutant, AA139 selection 8X, plate 1, colony 1, drug-free passage 1): 4, 4 µg/mL | MIC, broth microdilution ([3]; P. aeruginosa UNT 138-1 spontaneous mutant, AA139 selection 8X, plate 1, colony 1, drug-free passage 5): 4, 4 µg/mL | MIC, broth microdilution ([3]; P. aeruginosa UNT 138-1 spontaneous mutant, AA139 selection 8X, plate 1, colony 2, drug-free passage 1): 4, 4 µg/mL | MIC, broth microdilution ([3]; P. aeruginosa UNT 138-1 spontaneous mutant, AA139 selection 8X, plate 1, colony 2, drug-free passage 5): 4, 4 µg/mL | MIC, broth microdilution ([3]; P. aeruginosa UNT 138-1 spontaneous mutant, AA139 selection 8X, plate 1, colony 3, drug-free passage 1): 4, 4 µg/mL | MIC, broth microdilution ([3]; P. aeruginosa UNT 138-1 spontaneous mutant, AA139 selection 8X, plate 1, colony 3, drug-free passage 5): 4, 4 µg/mL | MIC, broth microdilution ([3]; P. aeruginosa UNT 138-1 spontaneous mutant, AA139 selection 8X, plate 1, colony 4, drug-free passage 1): 4, 4 µg/mL | MIC, broth microdilution ([3]; P. aeruginosa UNT 138-1 spontaneous mutant, AA139 selection 8X, plate 1, colony 4, drug-free passage 5): 4, 4 µg/mL | MIC, broth microdilution ([3]; P. aeruginosa UNT 138-1 spontaneous mutant, AA139 selection 8X, plate 1, colony 5, drug-free passage 1): 4 µg/mL (≈ 9.19 µM) | MIC, broth microdilution ([3]; P. aeruginosa UNT 138-1 spontaneous mutant, AA139 selection 8X, plate 1, colony 5, drug-free passage 5): 8 µg/mL (≈ 18.4 µM) | MIC, broth microdilution ([3]; P. aeruginosa UNT 138-1 spontaneous mutant, AA139 selection 8X, plate 2, colony 1, drug-free passage 1): 4 µg/mL (≈ 9.19 µM) | MIC, broth microdilution ([3]; P. aeruginosa UNT 138-1 spontaneous mutant, AA139 selection 8X, plate 2, colony 1, drug-free passage 5): 8 µg/mL (≈ 18.4 µM)
